This assay has as its target T1, PTP1B (Homo sapiens, UniProt P18031).
T1 construct: gene PTPN1; recombinant PTP1B protein
T1 sequence (P18031 1-435): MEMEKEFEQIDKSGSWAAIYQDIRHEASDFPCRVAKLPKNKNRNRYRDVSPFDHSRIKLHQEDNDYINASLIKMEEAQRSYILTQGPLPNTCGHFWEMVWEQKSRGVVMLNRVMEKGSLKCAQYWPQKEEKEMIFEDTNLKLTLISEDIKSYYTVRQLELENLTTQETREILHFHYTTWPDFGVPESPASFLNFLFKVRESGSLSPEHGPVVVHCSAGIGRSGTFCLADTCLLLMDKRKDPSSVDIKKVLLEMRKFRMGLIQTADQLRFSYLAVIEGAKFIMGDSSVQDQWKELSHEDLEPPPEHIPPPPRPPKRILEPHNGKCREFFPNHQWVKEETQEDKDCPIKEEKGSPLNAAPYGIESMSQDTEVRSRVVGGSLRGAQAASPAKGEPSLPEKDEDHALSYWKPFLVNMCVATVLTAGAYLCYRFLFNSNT
Kind of assay: p-nitrophenyl phosphate phosphatase assay with recombinant PTP1B; supported by CETSA in HCT116 lysates (ΔTm -4.[…] °C). It counts as biochemical.

Take `CCCCCC[n+]1ccn2[c]1[Pt-2]1([c]3ccccc3-c3cccc[n+]31)[c]1n(cc[n+]1CCCCCC)CCC2` [Pt-ER, PlatinER]: the IC50 (commonly the concentration that gives 50% inhibition) was determined as 20.6 ± 1.8 µM.

Source of the values: paper PMC12833861, “Organoplatinum(II) Type II Immunogenic Cell Death Inducers Target Protein Tyrosine Phosphatase 1B to Drive Immunogenicity” (Journal of the American Chemical Society, 2025).
